Experimental data published in ChEMBL document CHEMBL1221222, “Analysis of the eukaryotic prenylome by isoprenoid affinity tagging” (Nat Chem Biol, 2009).
Calls of active or inactive are those of the source. No cut-off for these calls is given here.

Tests used:
[1] = Binding affinity to GGTase-1 by NBD fluorescence assay
[2] = Binding affinity to RabGGTase by NBD fluorescence assay
[3] = Binding affinity to RabGGTase assessed as prenylation of Rab7 by SDS PAGE
[4] = Binding affinity to RabGGTase assessed as prenylation of Rab27 by SDS PAGE
[5] = Binding affinity to FTase assessed as prenylation of Ki-Ras by SDS PAGE
[6] = Binding affinity to GGTase-1 assessed as prenylation of RhoA by SDS PAGE
[7] = Binding affinity to FTase by X-ray crystallography
[8] = system: Protein farnesyltransferase subunit beta (Homo sapiens), P49356 [W102T,Y154T]; test: Binding affinity to FTase W102T/Y154T mutant assessed as prenylation of Ki-Ras by Western blot analysis
Chain of Protein farnesyltransferase subunit beta (Homo sapiens), P49356 [W102T,Y154T] (P49356 whole entry W102T/Y154T): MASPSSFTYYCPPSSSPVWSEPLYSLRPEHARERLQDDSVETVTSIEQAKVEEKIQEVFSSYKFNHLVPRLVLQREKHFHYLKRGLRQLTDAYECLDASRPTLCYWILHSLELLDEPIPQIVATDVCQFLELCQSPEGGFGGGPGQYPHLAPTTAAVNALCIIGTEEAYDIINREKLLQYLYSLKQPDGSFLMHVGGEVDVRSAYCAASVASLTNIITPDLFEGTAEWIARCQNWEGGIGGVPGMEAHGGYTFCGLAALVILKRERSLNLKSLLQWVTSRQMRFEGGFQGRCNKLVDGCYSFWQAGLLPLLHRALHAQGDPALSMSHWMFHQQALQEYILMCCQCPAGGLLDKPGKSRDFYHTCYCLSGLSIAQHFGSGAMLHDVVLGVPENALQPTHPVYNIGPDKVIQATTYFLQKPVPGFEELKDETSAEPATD

[9] = system: Protein farnesyltransferase subunit beta (Homo sapiens), P49356 [W102T,Y154T]; test: Binding affinity to FTase W102T/Y154T mutant assessed as prenylation of CFP-CAAX by Western blot analysis
[10] = system: Protein farnesyltransferase subunit beta (Homo sapiens), P49356 [W102T,Y154T]; test: Binding affinity to FTase W102T/Y154T mutant assessed as prenylation of Ki-Ras by ESI-MS analysis
[11] = system: Protein farnesyltransferase subunit beta (Homo sapiens), P49356 [W102T,Y154T]; test: Binding affinity to FTase W102T/Y154T mutant assessed as prenylation of CFP-CAAX by ESI-MS analysis
[12] = system: Protein farnesyltransferase subunit beta (Homo sapiens), P49356 [W102T]; test: Binding affinity to FTase W102T mutant assessed as prenylation of Ki-Ras by Western blot analysis
Chain of Protein farnesyltransferase subunit beta (Homo sapiens), P49356 [W102T] (P49356 whole entry W102T): as the sequence (P49356 whole entry W102T/Y154T) above, with T154Y counted along it

[13] = system: Protein farnesyltransferase subunit beta (Homo sapiens), P49356 [W102T]; test: Binding affinity to FTase W102T mutant assessed as prenylation of CFP-CAAX by Western blot analysis
[14] = system: Protein farnesyltransferase subunit beta (Homo sapiens), P49356 [W102T]; test: Binding affinity to FTase W102T mutant assessed as prenylation of Ki-Ras by ESI-MS analysis
[15] = system: Protein farnesyltransferase subunit beta (Homo sapiens), P49356 [W102T]; test: Binding affinity to FTase W102T mutant assessed as prenylation of CFP-CAAX by ESI-MS analysis
[16] = system: Protein farnesyltransferase subunit beta (Homo sapiens), P49356 [Y154T]; test: Binding affinity to FTase Y154T mutant assessed as prenylation of Ki-Ras by Western blot analysis
Chain of Protein farnesyltransferase subunit beta (Homo sapiens), P49356 [Y154T] (P49356 whole entry Y154T): as the sequence (P49356 whole entry W102T/Y154T) above, with T102W counted along it

[17] = system: Protein farnesyltransferase subunit beta (Homo sapiens), P49356 [Y154T]; test: Binding affinity to FTase Y154T mutant assessed as prenylation of CFP-CAAX by Western blot analysis
[18] = system: Protein farnesyltransferase subunit beta (Homo sapiens), P49356 [Y154T]; test: Binding affinity to FTase Y154T mutant assessed as prenylation of Ki-Ras by ESI-MS analysis
[19] = system: Protein farnesyltransferase subunit beta (Homo sapiens), P49356 [Y154T]; test: Binding affinity to FTase Y154T mutant assessed as prenylation of CFP-CAAX by ESI-MS analysis
[20] = system: Protein farnesyltransferase subunit beta (Homo sapiens), P49356 [W102T,Y365F]; test: Binding affinity to FTase W102T/Y365F mutant assessed as prenylation of Ki-Ras by Western blot analysis
Chain of Protein farnesyltransferase subunit beta (Homo sapiens), P49356 [W102T,Y365F] (P49356 whole entry W102T/Y365F): as the sequence (P49356 whole entry W102T/Y154T) above, with T154Y, Y365F counted along it

[21] = system: Protein farnesyltransferase subunit beta (Homo sapiens), P49356 [W102T,Y365F]; test: Binding affinity to FTase W102T/Y365F mutant assessed as prenylation of CFP-CAAX by Western blot analysis
[22] = system: Protein farnesyltransferase subunit beta (Homo sapiens), P49356 [W102T,Y365F]; test: Binding affinity to FTase W102T/Y365F mutant assessed as prenylation of Ki-Ras by ESI-MS analysis
[23] = system: Protein farnesyltransferase subunit beta (Homo sapiens), P49356 [W102T,Y365F]; test: Binding affinity to FTase W102T/Y365F mutant assessed as prenylation of CFP-CAAX by ESI-MS analysis
[24] = system: Geranylgeranyl transferase type-1 subunit beta (Homo sapiens), P53609 [Y126T]; test: Binding affinity to GGTase-1 Y126T mutant assessed as prenylation of RhoA GTPase by Western blot method
Chain of Geranylgeranyl transferase type-1 subunit beta (Homo sapiens), P53609 [Y126T] (P53609 whole entry Y126T): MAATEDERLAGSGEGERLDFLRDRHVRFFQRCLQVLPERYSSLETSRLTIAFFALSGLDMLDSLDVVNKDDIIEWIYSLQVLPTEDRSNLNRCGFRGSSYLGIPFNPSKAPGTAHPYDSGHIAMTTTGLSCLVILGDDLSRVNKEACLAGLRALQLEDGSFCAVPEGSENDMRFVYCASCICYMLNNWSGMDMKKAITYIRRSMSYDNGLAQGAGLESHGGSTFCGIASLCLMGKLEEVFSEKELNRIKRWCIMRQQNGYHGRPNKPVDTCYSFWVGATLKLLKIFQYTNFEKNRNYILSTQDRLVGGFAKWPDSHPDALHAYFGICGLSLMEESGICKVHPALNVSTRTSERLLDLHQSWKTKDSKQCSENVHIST

[25] = Binding affinity to GGTase-1 F53Y/Y126T mutant assessed as prenylation of RhoA GTPase by Western blot method
[26] = Binding affinity to GGTase-1 F53Y/Y126T mutant assessed as prenylation of dansyl-labeled GCVLS by fluorescence based assay
[27] = Binding affinity to GGTase-1 F53Y/Y126T mutant assessed as prenylation of dansyl-labeled GCVLL by fluorescence based assay
COS-7 [28] = test: Binding affinity to wild type FTase in african green monkey COS7 lysate assessed as prenylation of CFP-CAAX by Western blot method
[29] = system: Protein farnesyltransferase subunit beta (Homo sapiens), P49356 [W102T,Y154T]; test: Binding affinity to FTase W102T/Y154T mutant in african green monkey COS7 lysate assessed as prenylation of CFP-CAAX by Western blot method; conditions: COS-7
[30] = system: Protein farnesyltransferase subunit beta (Homo sapiens), P49356 [W102T,Y154T,Y205T]; test: Binding affinity to FTase W102T/Y154T/Y205T mutant in african green monkey COS7 lysate assessed as prenylation of CFP-CAAX by Western blot method; conditions: COS-7
Chain of Protein farnesyltransferase subunit beta (Homo sapiens), P49356 [W102T,Y154T,Y205T] (P49356 whole entry W102T/Y154T/Y205T): as the sequence (P49356 whole entry W102T/Y154T) above, with Y205T counted along it

COS-7 [31] = test: Binding affinity to GGTase-1 F53Y/Y126T mutant in african green monkey COS7 lysate assessed as prenylation of RhoA by Western blot method
[32] = system: Geranylgeranyl transferase type-1 subunit beta (Homo sapiens), P53609 [F52Y,F53Y,Y126T]; test: Binding affinity to GGTase-1 F52Y/F53Y/Y126T mutant in african green monkey COS7 lysate assessed as prenylation of RhoA by Western blot method; conditions: COS-7
Chain of Geranylgeranyl transferase type-1 subunit beta (Homo sapiens), P53609 [F52Y,F53Y,Y126T] (P53609 whole entry F52Y/F53Y/Y126T): as the sequence (P53609 whole entry Y126T) above, with F52Y, F53Y counted along it

[33] = system: Protein farnesyltransferase subunit beta (Homo sapiens), P49356 [W102T,Y154T,Y205T]; test: Binding affinity at FTase W102T/Y154T/Y205T mutant in african green monkey COS7 lysate assessed as protein prenylation by two-dimensional SDS-PAGE method; conditions: COS-7
COS-7 [34] = test: Binding affinity to GGTase-1 F53Y/Y126T mutant in african green monkey COS7 lysate assessed as protein prenylation by two-dimensional SDS-PAGE method
COS-7 [35] = test: Binding affinity to RabGGTase in african green monkey COS7 lysate assessed as prenylation of Rab by two-dimensional SDS-PAGE method
[36] = system: Geranylgeranyl transferase type-1 subunit beta (Homo sapiens), P53609 [F52Y,Y126T]; test: Binding affinity to GGTase-1 F52Y/Y126T mutant assessed as prenylation of RhoA GTPase by Western blot method
Chain of Geranylgeranyl transferase type-1 subunit beta (Homo sapiens), P53609 [F52Y,Y126T] (P53609 whole entry F52Y/Y126T): as the sequence (P53609 whole entry Y126T) above, with F52Y counted along it

Kd [1]: 45 nM | Kd [2]: 2.2 nM | Activity [3]: Active | Activity [4]: Active | Activity [5]: inactive | Activity [6]: inactive | Activity [7]: Active | Activity [8]: Active | Activity [9]: Active | Activity [10]: Active | Activity [11]: Active | Activity [12]: inactive | Activity [13]: inactive | Activity [14]: inactive | Activity [15]: inactive | Activity [16]: inactive | Activity [17]: inactive | Activity [18]: inactive | Activity [19]: inactive | Activity [20]: inactive | Activity [21]: inactive | Activity [22]: inactive | Activity [23]: inactive | Activity [24]: Active | Activity [25]: Active | Activity [26]: inactive | Activity [27]: inactive | Activity [29]: Active | Activity [30]: Active | Activity [32]: Active | Activity [33]: Active | Activity (COS-7 [34]): Active | Activity (COS-7 [35]): Active | Activity [36]: inactive
SMILES: C/C(=C\COP(=O)(O)OP(=O)(O)O)CC/C=C(\C)CNC(=O)CCCC[C@@H]1SC[C@@H]2NC(=O)N[C@@H]21 [biotin-geranylpyrophosphate]
Activity (COS-7 [28]): Active | Activity (COS-7 [31]): Active
